Results taken from US20230000955A1, “THROMBOMODULIN FUNCTIONAL DOMAINS FOR USE IN PROMOTING OSTEOBLAST FUNCTIONS AND BONE HEALING” (BLUE BLOOD BIOTECH CORP., priority 2019, published 2023).

Key:
[1] = test system: mice; test: Calvarial bone defect healing with DCI treatment (μCT, H&E); format: in vivo, mouse; settings: DCI alone
Protocol: FIGS. 8A-F show the effect of the TMD1 and TMD23 on calvarial bone healing. (8A) Cell migration, (8B) proliferation and (8C) mineralization of MG63 cells treated with the indicated dose of rTMD1. (8D) Calvarial bone healing of TM wild-type TM^wt/wt and TM domain 1 (TMD1)-deleted TM^LeD/LeD mice. (8E) μCT scanning and (8F) HE stain were used to evaluate the effect of vehicle, dichloroisocoumarin (DCI) and DCI plus rTMD23 or rTMD1 (100 μg/kg) on bone healing after a calvarial defect was created in mice. N=5 per group. Black bar=100 μm. White bar=1 mm. Dotted line indicates the section region. ***P<0.001.
Calvarial bone defect healing. Male mice were randomly assigned to designated groups. After anesthesia, a 4 mm-diameter defect on the calvaria was created and the wound was sutured. A combination of dichloroisocoumarin (DCI) (1 mM) or rTMD23 (0, 10, 100 μg/kg) and U0126 (20 μM) was subcutaneously injected once near the calvarial bone opening at week 1 after the surgery. Bone healing was monitored radiographically using μCT (Skyscan 1076, Antwerp, Belgium) and histologically at indicated time points (weeks 0 and 8) after the surgery. […] The quantification of the removed and regenerated bone volume (mm^3) performed by a 3D CT analyzer software (CTAN; Skyscan). […]

[2] = test system: MC3T3-E1 cells; test: Proliferation assay (WST-1); format: cell-based; settings: 1% FBS
Protocol: Proliferation assay. MG63 cells were treated with various concentrations of rTMD23 for 1, 4, 7 days. The medium was replaced every 2-3 days. At the end, the amount of living cells in each well was measured with crystal violet assay. The cells in each well were washed by PBS twice right before staining. Crystal violet (0.5%, 300 μL) were added in each well for 15 min, followed by ddH2O rinse at least five times. Acetic acid (10%, 300 μL) were added to dissolute the crystal violet. Then, taking 100 μL/well into a 96 well plate to get an OD595 measurement. A proliferation assay on MC3T3-E1 cells with various concentrations of a variant of TMD23 was performed. Briefly, MC3T3-E1 cells in 96-well plates were treated with rTMD23NA at various concentrations for 1, 3, 5 days. The number of living cells in each well was measured with WST-1 reagent. The cells in each well were washed by DMEM medium twice right before staining with 100 μL of 10% WST-1 in DMEM. The absorption at A450 nm-A690 nm of each well was measured.
Human osteoblast-like cell line MG63 and osteoblast cell line MC3T3-E1 were used in the cell proliferation assay. Briefly, different concentrations of rTMD23 and rTMD23NA, which is a variant form of rTMD23, were respectively added to MG63 or MC3T3-E1 cell culture containing 1% FBS. […] The OD595 of the cell lysate in 10% acetic acid was measured to obtain the relative cell count in each well.

[3] = test system: protein C; settings: cited from earlier work

| Molecule | regeneration of calvarial bone defect (μCT and H&E) [1] | cell proliferation (absorbance, WST-1) [2] | protein C activation activity [3] |
| --- | --- | --- | --- |
| O=c1oc(Cl)c(Cl)c2ccccc12 [DCI, dichloroisocoumarin] | reduced regeneration of calvarial bone defect | – | – |
| rTMD23NA: recombinant TMD23 variant with two substitutions Asn364Ala and Asn391Ala, SEQ ID NO: 3 (274aa) | – | enhance cell proliferation | little or no protein C activation activity |
